pIC50: −log10 of the molar value.
What follows are molecules tested against Skeletal Myofibril ATPase (Rabbit Psoas myofibrils) (assay: Skeletal Myofibril ATPase Assay). Details: PK/LDH-coupled NADH absorbance at 340 nm.
Type: biochemical
Description: Overview: Myosin ATPase activity was assessed by using a coupled reaction system, in which ADP generated by the myosin ATPase function was coupled to the disappearance of NADH through the pyruvate kinase/lactate dehydrogenase (PK-LDH) system. Myosin ATPase activity produces ADP, which was used as a substrate for PK to produce pyruvate and regenerate ATP. The pyruvate was then used as a substrate by LDH to oxidize NADH to NAD+. The rate of the reaction was monitored through the time-dependent disappearance of NADH using absorbance at 340 nm. Inhibition of ATPase activity by the assayed compounds was indicated by a reduced rate of NADH loss, relative to vehicle-treated controls, over the experimental time window. To assess the selectivity of the assayed compounds for skeletal myofibrils, the compounds were counter-screened in cardiac myofibrils.
Materials: The following stock solutions and reagents were used in the Skeletal Myofibril ATPase Assay:
Stock Solutions of pCa buffer. Combine PIPES, CaCl2, and EGTA solutions with 70 mL of water. Adjust pH to 7.0 and bring final volume to 100 mL.
Buffer A & Buffer B. Buffers were stored on ice until use.
Skeletal Myofibril ATPase Assay Procedure: BSA, ATP, NADH, PEP, and DTT solutions were thawed at room temperature, then transferred to ice. Pellet-frozen myofibrils (approximately twice the required volume) were transferred into a sufficiently large tube and capped. Myofibrils were thawed by rolling in a water bath for approximately 15 min at room temperature and cooled on ice. Buffers A and B were prepared by adjusting volumes as necessary for required number of wells and stored on ice. 0.5 μL of the compounds to be assayed were added into wells of a 384-well plate. Buffers A and B were mixed by inversion immediately prior to use, then 25 μL of each was dispensed using a Multidrop dispenser (Buffer A first, then Buffer B). The absorbance within the wells was measured at 340 nm, using a kinetic protocol in which the wells are read every 1.5-2 min for 1 h. The reaction rate was qualitatively assessed by subtracting the minimum absorbance value from the maximum value for each well, using either the SoftMax Pro plate reader software or a spreadsheet program such as Excel. Using GraphPad Prism 8.0, the data was normalized, with 100% activity defined as the absorbance change in the 1% DMSO vehicle wells and 0% assigned to no change in absorbance over the course of the experiment. The normalized data were fit to a variable-slope four-parameter logistic model, constraining the bottom to be 0 or greater. Compounds of Table 1 to 3 were tested and results of the assay appear in Table 4 herein. A=IC50 is less than or equal to 10 μM; B=IC50 is greater than 10 μM and less than 100 μM; C=IC50 is greater than 100 μM.

Cc1cccc(-c2noc(-c3ccc(=O)n(Cc4cncc(Cl)c4)c3)n2)c1 [Compound 90, 1-((5-chloropyridin-3-yl)methyl)-5-(3-(m-tolyl)-1,2,4-oxadiazol-5-yl)pyridin-2(1H)-one] and Cc1cccc(-c2noc(-c3ccc(=O)n(Cc4cncc(C#N)c4)c3)n2)c1 [Compound 98, 5-((2-oxo-5-(3-(m-tolyl)-1,2,4-oxadiazol-5-yl)pyridin-1(2H)-yl)methyl)nicotinoni trile] cannot be ordered by pIC50: no less than 5.00 for the first, no less than 5.00 for the second.

O=C(Cn1nc(-c2cccs2)ccc1=O)Nc1ccccc1Cl [Compound 37, N-(2-chlorophenyl)-2-(6-oxo-3-(thiophen-2-yl)pyridazin-1(6H)-yl)acetamide] and COc1ccccc1NC(=O)Cn1nc(-c2cccs2)ccc1=O [Compound 40, N-(2-methoxypheny1)-2-(6-oxo-3-(thiophen-2-yl)pyridazin-1(6H)-yl)acetamide] fall in the same range of pIC50: 4.00 to 5.00 for the first, 4.00 to 5.00 for the second.

Compared with Cc1ccc(-c2ccc(=O)n(CCOc3cccc(C#N)c3)n2)s1 [Compound 61, 3-(2-(3-(5-methylthiophen-2-yl)-6-oxopyridazin-1(6H)-yl)ethoxy)benzonitrile], Cc1ccc(-c2ccc(=O)n(CC(=O)N(C)c3ccccc3)n2)s1 [Compound 38, N-methyl-2-(3-(5-methylthiophen-2-yl)-6-oxopyridazin-1(6H)-yl)-N -phenylacetamide] is higher in pIC50: less than 4.00 for the first, 4.00 to 5.00 for the second. The second is the more potent here.

O=c1ccc(-n2cncn2)nn1Cc1cccc(Cl)c1 [Compound 78, 2-(3-chlorobenzyl)-6-(1H-1,2,4-triazol-1-yl)pyridazin-3(2H)-one] and O=c1ccc(-c2cccs2)nn1Cc1cccc(Cl)c1 [Compound 56, 2-(3-chlorobenzyl)-6-(thiophen-2-yl)pyridazin-3(2H)-one] cannot be ordered by pIC50: 4.00 to 5.00 for the first, no less than 5.00 for the second.

First: O=c1ccc(-c2cccs2)nn1Cc1ccccc1F [Compound 58, 2-(2-fluorobenzyl)-6-(thiophen-2-yl)pyridazin-3(2H)-one]
Second: O=c1ccc(-c2cccs2)nn1Cc1cccc(F)c1 [Compound 57, 2-(3-fluorobenzyl)-6-(thiophen-2-yl)pyridazin-3(2H)-one]
The pIC50 of the first is lower: less than 4.00 for the first, 4.00 to 5.00 for the second. The second is the more potent here.

O=c1ccc(-c2nc(-c3cccc(Cl)c3)no2)nn1Cc1cncc(F)c1 [Compound 64, 6-(3-(3-chlorophenyl)-1,2,4-oxadiazol-5-yl)-2-((5-fluoropyridin-3-yl)methyl)pyridazin-3(2H)-one] and O=c1ccc(-c2nc(-c3cncc(Cl)c3)no2)nn1Cc1cncc(F)c1 [Compound 65, 6-(3-(5-chloropyridin-3-yl)-1,2,4-oxadiazol-5-yl)-2-((5-fluoropyridin-3-yl)methyl)pyridazin-3(2H)-one] cannot be ordered by pIC50: no less than 5.00 for the first, no less than 5.00 for the second.

First: Cc1cccc(-c2noc(-c3ccc(=O)n(Cc4cccnc4C)c3)n2)c1 [Compound 118, 1-((2-methylpyridin-3-yl)methyl)-5-(3-(m-tolyl)-1,2,4-oxadiazol-5-yl)pyridin-2(1H)-one]
Second: Cc1cccc(-c2noc(-c3ccc(=O)n(Cc4cccnc4)c3)n2)c1 [Compound 94, 1-(pyridin-3-ylmethyl)-5-(3-(m-tolyl)-1,2,4-oxadiazol-5-yl)pyridin-2(1H)-one]
The pIC50 of the first is lower: less than 3.92 for the first, no less than 5.00 for the second. The second is the more potent here.

O=c1ccc(-c2nc(-c3cccc(F)c3)no2)cn1Cc1cncnc1 [Compound 106, 5-(3-(3-fluorophenyl)-1,2,4-oxadiazol-5-yl)-1-(pyrimidin-5-ylmethyl)pyridin-2(1H)-one] and Cc1cccc(-c2noc(-c3ccc(=O)n(Cc4cccnc4)c3)n2)c1 [Compound 84, 1-(pyridin-3-ylmethyl)-5-(3-(m-tolyl)-1,2,4-oxadiazol-5-yl)pyridin-2(1H)-one] cannot be ordered by pIC50: no less than 5.00 for the first, no less than 5.00 for the second.

CCNC(=O)Cn1nc(-c2nnc(-c3cccc(Cl)c3)s2)ccc1=O [Compound 24, 2-(3-(5-(3-chlorophenyl)-1,3,4-thiadiazol-2-yl)-6-oxopyridazin-1(6H)-yl)-N-ethylacetamide] and CCNC(=O)Cn1nc(-c2nc(-c3cccc(F)c3)no2)ccc1=O [Compound 2, N-ethyl-2-(3-(3-(3-fluorophenyl)-1,2,4-oxadiazol-5-yl)-6-oxopyridazin-1(6H)-yl)acetamide] cannot be ordered by pIC50: no less than 5.00 for the first, no less than 5.00 for the second.

COc1ccc(Cn2cc(-c3nc(-c4cccc(C)c4)no3)ccc2=O)cn1 [Compound 88, 1-((6-methoxypyridin-3-yl)methyl)-5-(3-(m-tolyl)-1,2,4-oxadiazol-5-yl)pyridin-2(1H)-one] and Cc1cccc(-c2noc(-c3ccc(=O)n(Cc4ccc(OC(F)F)nc4)c3)n2)c1 [Compound 93, 1-((6-(difluoromethoxy)pyridin-3-yl)methyl)-5-(3-(m-tolyl)-1,2,4-oxadiazol-5-yl)pyridin-2(1H)-one] cannot be ordered by pIC50: no less than 5.00 for the first, no less than 5.00 for the second.

CCNC(=O)Cn1nc(-c2nc(-c3cncc(C(F)(F)F)c3)no2)ccc1=O [Compound 10, N-ethyl-2-(6-oxo-3-(3-(5-(trifluoromethyl)pyridin-3-yl)-1,2,4-oxadiazol-5-yl)pyridazin-1(6H)-yl)acetamide] and CCNC(=O)Cn1nc(-c2nc(-c3cncc(Cl)c3)no2)ccc1=O [Compound 12, 2-(3-(3-(5-chloropyridin-3-yl)-1,2,4-oxadiazol-5-yl)-6-oxopyridazin-1(6H)-yl)-N-ethylacetamide] cannot be ordered by pIC50: no less than 5.00 for the first, no less than 5.00 for the second.

O=c1ccc(-c2cccs2)nn1Cc1cccc(C(F)(F)F)c1 [Compound 59, 6-(thiophen-2-yl)-2-(3-(trifluoromethyl)benzyl)pyridazin-3(2H)-one] and O=c1ccc(-c2cccs2)nn1C/C=C/c1ccccc1 [Compound 62, 2-cinnamyl-6-(thiophen-2-yl)pyridazin-3(2H)-one] cannot be ordered by pIC50: less than 4.00 for the first, less than 4.00 for the second.

O=C(Cn1nc(-c2nnc(-c3cc(Cl)ccc3Cl)s2)ccc1=O)NC1CCC1 [Compound 18, N-cyclobutyl-2-(3-(5-(2,5-dichlorophenyl)-1,3,4-thiadiazol-2-yl)-6-oxopyridazin-1(6H)-yl)acetamide] and O=C(Cn1nc(-c2nnc(-c3cncc(Cl)c3)s2)ccc1=O)NC1CCC1 [Compound 20, 2-(3-(5-(5-chloropyridin-3-yl)-1,3,4-thiadiazol-2-yl)-6-oxopyridazin-1(6H)-yl)-N-cyclobutylacetamide] cannot be ordered by pIC50: no less than 5.00 for the first, no less than 5.00 for the second.

Compared with O=C(Cn1nc(-c2cccs2)ccc1=O)Nc1ccc2c(c1)OCCO2 [Compound 46, N-(2,3-dihydrobenzo[b][1,4]dioxin-6-yl)-2-(6-oxo-3-(thiophen-2-yl)pyridazin-1(6H)-yl)acetamide], Cc1ccc(-c2ccc(=O)n(CC(=O)NC3CCCC3)n2)s1 [Compound 39, N-cyclopentyl-2-(3-(5-methylthiophen-2-yl)-6-oxopyridazin-1(6H)-yl)acetamide] is higher in pIC50: less than 4.00 for the first, 4.00 to 5.00 for the second. The second is the more potent here.

CCNC(=O)Cn1nc(-c2nc(-c3cc(F)cc(F)c3)no2)ccc1=O [Compound 9, 2-(3-(3-(3,5-difluorophenyl)-1,2,4-oxadiazol-5-yl)-6-oxopyridazin-1(6H)-yl)-N-ethylacetamide] and CCNC(=O)Cn1nc(-c2nc(-c3cccc(Cl)c3F)no2)ccc1=O [Compound 3, 2-(3-(3-(3-chloro-2-fluoropheny)-1,2,4-oxadiazol-5-yl)-6-oxopyridazin-1(6H)-yl)-N-ethylacetamide] cannot be ordered by pIC50: no less than 5.00 for the first, no less than 5.00 for the second.

First: O=c1ccc(-c2nc(-c3cccc(Cl)c3)no2)cn1Cc1cccnc1 [Compound 91, 5-(3-(3-chlorophenyl)-1,2,4-oxadiazol-5-yl)-1-(pyridin-3-ylmethyl)pyndin-2(1H)-one]
Second: O=c1ccc(-c2nc(-c3ccc(Cl)cc3)no2)cn1Cc1ccc(Cl)cc1 [Compound 122, 1-(4-chlorobenzyl)-5-(3-(4-chlorophenyl)-1,2,4-oxadiazol-5-yl)pyridin-2(1H)-one]
The pIC50 of the first is higher: no less than 5.00 for the first, less than 3.92 for the second. The first is the more potent here.

CCCNC(=O)Cn1nc(-c2nc(-c3ccc(Cl)cc3)no2)ccc1=O [Compound 51, 2-(3-(3-(4-chlorophenyl)-1,2,4-oxadiazol-5-yl)-6-oxopyridazin-1(6H)-yl)-N-propylacetamide] and CCNC(=O)Cn1nc(-c2nc(C3CC3)no2)ccc1=O [Compound 15, 2-(3-(3-cyclopropyl-1,2,4-oxadiazol-5-yl)-6-oxopyridazin-1(6H)-yl)-N-ethylacetamide] cannot be ordered by pIC50: no less than 5.00 for the first, 4.00 to 5.00 for the second.

First: O=c1ccc(-c2nc(-c3ccncc3)no2)cn1Cc1ccccc1C(F)(F)F [Compound 120, 5-(3-(pyridin-4-yl)-1,2,4-oxadiazol-5-yl)-1-(2-(trifluoromethyl)benzyl)pyridin-2(1H)-one]
Second: O=C(Cn1nc(-c2nnc(-c3ccccn3)s2)ccc1=O)NC1CCC1 [Compound 22, N-cyclobutyl-2-(6-oxo-3-(5-(pyridin-2-yl)-1,3,4-thiadiazol-2-yl)pyridazin-1(6H)-yl)acetamide]
The pIC50 of the first is lower: less than 3.92 for the first, no less than 5.00 for the second.

— US12643892B2, “Pyridazinone compounds for the treatment of neuromuscular diseases” (Edgewise Therapeutics, Inc., priority 2020, dated 2026)
